Several values for one entry are separate records, joined by “and”; a condition that tells them apart may be missing. Equal values may be shown once. Read-outs that look alike come from different tables or passages of the source. Blank lines part the entries; values can stand above or below the compound they belong to.
How the values were obtained:
A549 NSCLC cells [1] = test: MTS cell proliferation assay, A549; format: cell-based; details: for growth inhibitory effect against A549 cells: concentrations up to 1 mM; for EC50: Homo sapiens, A549 (NSCLC), MTS, table of Example 3; for IC50: A549, MTS, read-out: IC50 (decreased cell proliferation by 50% compared to control)
Procedure: Cell proliferation was determined using the CellTiter 96 Aqueous One Solution Cell Proliferation Assay MTS assay. A549 NSCLC cells were plated at 1.5×10^3 cells per well in flat bottom 96 well plates in 99 μL of media and allowed to adhere overnight. The drugs were serially diluted in 100% DMSO. For each drug treatment group, 1 μL of a 100× stock solution was added to each well for a final DMSO concentration of 1%. Cells were treated for 24, 48 or 72 hours. Cells were incubated with MTS dye (20 μL well^−1) for 40 min to 2 h. Absorbance at 490 nm was determined using a SpectraMax M2 (Molecular Devices) plate reader. The percent cell proliferation was calculated by converting the experimental absorbance to percentage of control, which was then plotted vs. drug concentration. The IC50 values were determined using a non-linear dose-response analysis in GraphPad Prism version 4.0. The IC50 is defined as the concentration of drug needed to cause a 50% decrease in proliferation compared to vehicle control. […]

P. falciparum (NF54) = test: Antimalarial [3H]-hypoxanthine incorporation assay; format: cell-based, Plasmodium falciparum
Procedure: Plasmodium falciparum culture. NF54 P. falciparum parasites were maintained in O+ positive erythrocytes (obtained weekly from a rotating pool of screened healthy donors) in complete medium containing RPMI (Sigma), 25 mM N-2-hydroxyethylpiperazine-N′-2-ethanesulfonic acid (HEPES; Sigma), 27 mM sodium bicarbonate (Sigma) and 10% heat-inactivated male O+ serum in non-vented flasks. Hematocrit was maintained at 2.4%. Flasks were gassed with a mixture of 3% oxygen, 4% carbon dioxide, 93% nitrogen. Parasitemia was maintained at 0.1-5% by changing medium and erythrocytes two to three times a week.
Antimalarial activity was measured using a [^3H]-hypoxanthine incorporation assay as described previously (Desjardins et al., Antimicrob. Agents Chemother., vol. 16, p. 710, 1979; Milhous et al., Antimicrob. Agents Chemother., vol. 27, np. 525, 1985). […] For surveys, each concentration was assayed in triplicate while in expansions, each concentration was assayed in quadruplicate. To each well, 0.64 μCi of [^3H]-hypoxanthine (10-30 Ci/mmol; Perkin Elmer) was added and the plate was incubated for an additional 20 to 24 h. Samples from each well were harvested on filter paper and tritium counts were measured on the Beckmann Coulter LS6500 scintillation counter. […] Values considered as outliers according to Chauvenet's criterion were discarded and dropped from analysis. One survey and at least one expansion was performed for each compound.

A549 NSCLC cells [2] = test: Activity of other esters against NSCLC (FIG. 13A-D); format: cell-based; details: Homo sapiens
Procedure: Cells were dosed as described above. […] The results shown in FIG. 13 are from a single experiment only.
Results are shown in FIG. 13 and in the table below

[3] = system: PIP3 (prostate) cancer cell line; test: MTS cell proliferation assay, PIP3; format: cell-based
Procedure: (§1) Cell proliferation was determined using the CellTiter 96 Aqueous One Solution Cell Proliferation Assay MTS assay. A549 NSCLC cells were plated at 1.5×10^3 cells per well in flat bottom 96 well plates in 99 μL of media and allowed to adhere overnight. The drugs were serially diluted in 100% DMSO. For each drug treatment group, 1 μL of a 100× stock solution was added to each well for a final DMSO concentration of 1%. Cells were treated for 24, 48 or 72 hours. Cells were incubated with MTS dye (20 μL well^−1) for 40 min to 2 h. Absorbance at 490 nm was determined using a SpectraMax M2 (Molecular Devices) plate reader. The percent cell proliferation was calculated by converting the experimental absorbance to percentage of control, which was then plotted vs. drug concentration. The IC50 values were determined using a non-linear dose-response analysis in GraphPad Prism version 4.0. The IC50 is defined as the concentration of drug needed to cause a 50% decrease in proliferation compared to vehicle control.
(§2) The activity of Clodronate prodrug (14) was tested against other cell lines, include prostate (PIP3) and breast (MDA-MB-453) cancer cells lines. Cell proliferation was determined using the CellTiter 96 Aqueous One Solution Cell Proliferation Assay MTS assay as discussed above. Results are shown in FIG. 22 and in the table below.

[4] = system: MDA-MB-453 (breast) cancer cell line; test: MTS cell proliferation assay, MDA-MB-453; format: cell-based; details: Homo sapiens
Procedure: as §1, §2

[5] = system: breast and ovarian cancers; details: cited from earlier work
L1210 = test: Cytotoxicity, L1210; format: cell-based
lung cancer cell lines = details: cited from earlier work
A549 NSCLC cells [6] = test: Trypan blue cell count assay, A549; details: for EC50: read-out: EC50 (decreased cell number by 50% compared to control)
Procedure: A549 NSCLC cells were plated at 1.7×10^4 cells per well in flat bottom 12-well plates. Cells were dosed as described above. At 24, 48 or 72 hours following drug treatment, the media was collected, and the cells were washed with 200 μL PBS. Each well was trypsinized with 200 μL trypsin for 3-5 min. The trypsin reaction was quenched with an equal volume of media. All supernatants and washes were combined and spun at 1,500 rpm for 5 min. Supernatant was decanted, and the cells were resuspended in 200 μL media. The cells were diluted 1:1 in 0.04% trypan blue and counted using a cytometer. The absolute number of cells was determined at each drug concentration. The cell number for each concentration was converted to percent of control for each time point, and plotted using GraphPad Prism 4.0. The EC50 was calculated as the concentration of drug that caused a 50% decrease in number of cells compared to control.
The number of viable cells at each dose was determined at 0, 24, 48 and 72 hours following drug treatment and plotted as a percent of control (FIG. 6A).

H358 = test: Cyclized zoledronate intermediate vs zoledronic acid, normoxia/hypoxia, H358; format: cell-based; details: Homo sapiens
[7] = system: several cancer cell lines; details: cited from earlier work
A549 = test: Cyclized zoledronate intermediate vs zoledronic acid, normoxia/hypoxia, A549; format: cell-based; details: Homo sapiens
[8] = Plasmodium falciparum, P. falciparum (NF54), read-out: IC50
[9] = A549, 24 h, single experiment, read-out: IC50 24 h
[10] = A549, 48 h, single experiment, read-out: IC50 48 h
[11] = A549, 72 h, single experiment, read-out: IC50 72 h

SMILES: O=P(O)(O)CP(=O)(O)O [Bisphosphonate, reference compound]
growth inhibitory effect against A549 cells (A549 NSCLC cells [1]): minimal activity

SMILES: CN(CCCCCl)P(=O)(OCc1ccccc1)C(Cl)(Cl)P(=O)(OCc1ccccc1)N(C)CCCCCl (stereo not drawn) [Chlorobenzyl analog]
IC50 (P. falciparum (NF54); Plasmodium falciparum, NF54): 5.9 µM | IC50 (A549 NSCLC cells [2]; A549, 24 h, read-out: IC50 24 h): 18.9 µM | IC50 (A549 NSCLC cells [2]; A549, 48 h, read-out: IC50 48 h): 11.9 µM | IC50 (A549 NSCLC cells [2]; A549, 72 h, read-out: IC50 72 h): 11.6 µM

EC50 (A549 NSCLC cells [1]): > 1000 µM | EC50 [3]: > 1000 µM | IC50 (P. falciparum (NF54); [8]): 750 µM | EC50 [4]: > 1000 µM
SMILES: O=P(O)(O)C(Cl)(Cl)P(=O)(O)O [Clodronate, clodronate, reference compound]
growth inhibitory effect against A549 cells (A549 NSCLC cells [1]): minimal activity | growth inhibitory effect against A549 cells (A549 NSCLC cells [1]; listed as clodronate): does not exhibit a detectable growth inhibitory effect | growth inhibition [5]: high micromolar or low millimolar range | IC50 (L1210; Mus musculus): 830 µM | activity against lung cancer cell lines (lung cancer cell lines): minimal activity

SMILES: CN(CCCCCl)P(=O)(CP(=O)(OCc1ccccc1)N(C)CCCCCl)OCc1ccccc1 (stereo not drawn) [Deschlorobenzyl Analog]
IC50 (A549 NSCLC cells [2]; [9]): 21.6 µM | IC50 (A549 NSCLC cells [2]; [10]): 12.8 µM | IC50 (A549 NSCLC cells [2]; [11]): 7.8 µM

SMILES: CCN(CC)P(=O)(OCc1ccc([N+](=O)[O-])cc1)C(Cl)(Cl)P(=O)(OCc1ccc([N+](=O)[O-])cc1)N(CC)CC (stereo not drawn) [Diethylamine Analog]
IC50 (P. falciparum (NF54); [8]): 3.3 µM

SMILES: COP(=O)(N(C)CCCCCl)C(Cl)(Cl)P(=O)(OC)N(C)CCCCCl (stereo not drawn) [Methoxy analog]
IC50 (P. falciparum (NF54); [8]): 22 µM | IC50 (A549 NSCLC cells [2]; [9]): 93.4 µM | IC50 (A549 NSCLC cells [2]; [10]): 100 µM | IC50 (A549 NSCLC cells [2]; [11]): 76.3 µM

SMILES: CN(CCCCCl)P(=O)(OCCc1ccc([N+](=O)[O-])cc1)C(Cl)(Cl)P(=O)(OCCc1ccc([N+](=O)[O-])cc1)N(C)CCCCCl (stereo not drawn) [Nitrophenethyl analog]
IC50 (P. falciparum (NF54); [8]): 0.97 ± 0.21 µM | IC50 (A549 NSCLC cells [2]; [9]): 4.8 µM | IC50 (A549 NSCLC cells [2]; [10]): 3.1 µM | IC50 (A549 NSCLC cells [2]; [11]): 2.1 µM | EC50 (A549 NSCLC cells [6]; Homo sapiens, A549, 24 h): ~10 µM | EC50 (A549 NSCLC cells [6]; Homo sapiens, A549, 48 h): 3.5 µM | EC50 (A549 NSCLC cells [6]; Homo sapiens, A549, 72 h): 4.2 µM

EC50 (A549 NSCLC cells [1]): 58 µM | EC50 [3]: 78 µM | IC50 (H358; NCI-H358, 48 h, H358, 48 hrs, Hypoxia): 87 µM | IC50 (H358; NCI-H358, 48 h, H358, 48 hrs, Normoxia): 59 µM | IC50 (H358; NCI-H358, 72 h, H358, 72 hrs, Hypoxia): 135 µM | IC50 (H358; NCI-H358, 72 h, H358, 72 hrs, Normoxia): 15 µM | EC50 [4]: 191 µM | IC50 (A549; A549, 48 h, Hypoxia): 350 µM | IC50 (A549; A549, 48 h, Normoxia): 98 µM | IC50 (A549; A549, 72 h, Hypoxia): 205 µM | IC50 (A549; A549, 72 h, Normoxia): 45 µM
SMILES: O=P(O)(O)C(O)(Cn1ccnc1)P(=O)(O)O [Zoledronate, zoledronate]
IC50 [7]: ≥ 3 µM

SMILES: CN(CCCCCl)P(=O)(CP(=O)(OCc1ccc([N+](=O)[O-])cc1)N(C)CCCCCl)OCc1ccc([N+](=O)[O-])cc1 (stereo not drawn) [compound 13]
IC50 (A549 NSCLC cells [1]; 24 h): 17 ± 4 µM | IC50 (A549 NSCLC cells [1]; 48 h): 15.2 µM and 15 µM | IC50 (A549 NSCLC cells [1]; 72 h): 13 ± 1 µM | decrease in IC50 of 13 compared to 14 (A549 NSCLC cells [1]; A549 cells): 3 fold | IC50 (P. falciparum (NF54); P. falciparum (NF54), read-out: IC50): 5.2 ± 0.21 µM | IC50 (L1210): 27 µM | EC50 (trypan blue) fold higher than IC50 (MTS) (A549 NSCLC cells [6]; A549, 48 h): ~3.6 fold | EC50 (A549 NSCLC cells [6]; A549, trypan blue, 48 h): 24 ± 4 µM | EC50 (A549 NSCLC cells [6]; A549, trypan blue, 72 h): 25 ± 4 µM | EC50 (A549 NSCLC cells [6]; A549, trypan blue, 72 h, listed as Bisphosphonate Prodrug): 24 ± 4 µM

— patent US8772268B2, “Bisphosphonamidate prodrugs and uses thereof” (The Johns Hopkins University, priority 2010, dated 2014)
